Patent publication US20100249071A1, “Modulators of S1P and Methods of Making And Using” (Exelixis, Inc., priority 2009, published 2010)
Read-outs that look alike come from different tables or passages of the source.

What was measured:
[1] = molecular target: T1, S1P1 (Homo sapiens, UniProt P21453); assay: Tango β-arrestin recruitment assay in U2OS cells (Assay 2b); assay type: cell-based; conditions: read-out: Assay 2b EC50
T1 construct: host or cells: U2OS
Procedure, shortened: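 In this agonist-mode Tango assay, U2OS cells carrying S1P1 and the reporter were serum-starved 48 h, then exposed overnight at 37 °C to compound (10 points, 3-fold, top 1 μM, 1% DMSO). β-Lactamase F460/F530 ratio was normalized to 1 μM S1P, and EC50 was fitted.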

[2] = molecular target: T2, hS1PR5 (hEdg8) membrane protein (Homo sapiens, UniProt Q9H228); assay: hS1P5R GTPγS binding assay (Assay 4); assay type: biochemical
T2 construct: expressed in transfected cells; host or cells: CHO
T2 sequence (Q9H228 whole entry): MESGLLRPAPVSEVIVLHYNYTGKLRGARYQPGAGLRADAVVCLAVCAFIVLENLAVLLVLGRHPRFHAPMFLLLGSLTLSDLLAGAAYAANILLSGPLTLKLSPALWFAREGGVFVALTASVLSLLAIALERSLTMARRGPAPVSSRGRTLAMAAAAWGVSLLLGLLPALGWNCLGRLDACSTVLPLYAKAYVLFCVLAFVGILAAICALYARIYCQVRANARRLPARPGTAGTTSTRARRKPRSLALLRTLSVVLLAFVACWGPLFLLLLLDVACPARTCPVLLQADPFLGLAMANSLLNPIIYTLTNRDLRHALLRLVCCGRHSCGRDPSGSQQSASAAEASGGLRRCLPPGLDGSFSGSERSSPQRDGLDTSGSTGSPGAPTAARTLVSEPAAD
Procedure, shortened: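 Membranes (5 μg) from CHO cells expressing hS1PR5, incubated 1 h at room temperature with 30 μM GDP, 0.1 nM [35S]GTPγS, 0.25% fatty acid free BSA and serially diluted compound in pH 7.9 Tris buffer with MgCl2. WGA SPA beads added for another 1 h, then bound [35S]GTPγS counted by scintillation.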

[3] = system: circulating lymphocytes; assay: Lymphocyte PD assay in rats; assay type: in vivo, rat; conditions: 24 hours after oral single dose at 3 mg/kg, Female CD rats (Sprague Dawley), compared to vehicle-only group
Description: Suppression of circulating lymphocytes was assessed as a PD endpoint in jugular vein canulated Sprague Dawely (SD) rats 6-8 weeks of age and weighing approximately 200 g (Taconic Farms, Germantown, N.Y.). Prior initiating a study, rats were acclimated to the vivarium facility (12 h light cycle, 12 h dark cycle) for a minimum of 2 days. During a study, animals were provided food and water ad libitum and housed in a room conditioned at 70-75° F. and 60% relative humidity. All animals were examined daily for health assessment.
The Compound of the Invention were formulated and animals was dosed at a volume of 4 mL/kg. At indicated timepoints, whole blood was collected via jugular vein canulas into EDTA-coated tubes and hematology analysis was performed on an Abbott Cell-Dyn 3700 hematology analyzer. Readouts included white blood cells (total, differential, and % of total), neutrophils, lymphocytes, monocytes, eosinophils, basophils, RBC, HGB, hematocrit, mean corpuscule volume, mean corpuscule HGB concentration, RBC distribution width, platelets, and mean platelet volume.

[4] = molecular target: T3, hS1P1R (hEdg1) membrane protein (Homo sapiens, UniProt P21453); assay: hS1P1R GTPγS binding assay (Assay 3a); assay type: biochemical
T3 construct: purchased Lonza
T3 sequence (P21453 whole entry): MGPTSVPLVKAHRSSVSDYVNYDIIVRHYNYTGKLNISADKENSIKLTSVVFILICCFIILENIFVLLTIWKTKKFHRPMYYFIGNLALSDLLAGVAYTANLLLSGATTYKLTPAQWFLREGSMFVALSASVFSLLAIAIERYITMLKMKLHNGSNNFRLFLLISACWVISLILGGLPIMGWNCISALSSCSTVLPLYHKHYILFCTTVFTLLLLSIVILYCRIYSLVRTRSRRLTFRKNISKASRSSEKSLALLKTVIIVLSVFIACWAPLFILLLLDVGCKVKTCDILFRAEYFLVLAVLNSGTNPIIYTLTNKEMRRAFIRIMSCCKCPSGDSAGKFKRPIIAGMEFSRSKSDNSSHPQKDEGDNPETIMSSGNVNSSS
Procedure, shortened: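 Membranes (4 μg) expressing hS1P1R incubated 1 h at room temperature with 30 μM GDP, 0.1 nM [^35S]GTPγS, 0.25% fatty acid free BSA and serially diluted agonist in Tris-HCl pH 7.9/NaCl/MgCl2/EGTA buffer. Bound [^35S]GTPγS captured on WGA SPA beads (further 1 h) and counted.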

[5] = molecular target: T4, S1P3 (Homo sapiens, UniProt Q99500); assay: S1P3 Tango β-arrestin recruitment assay in HEK293 cells (Assay 5); assay type: cell-based
T4 construct: host or cells: HEK293 (transient transfection)
T4 sequence (P32121 whole entry): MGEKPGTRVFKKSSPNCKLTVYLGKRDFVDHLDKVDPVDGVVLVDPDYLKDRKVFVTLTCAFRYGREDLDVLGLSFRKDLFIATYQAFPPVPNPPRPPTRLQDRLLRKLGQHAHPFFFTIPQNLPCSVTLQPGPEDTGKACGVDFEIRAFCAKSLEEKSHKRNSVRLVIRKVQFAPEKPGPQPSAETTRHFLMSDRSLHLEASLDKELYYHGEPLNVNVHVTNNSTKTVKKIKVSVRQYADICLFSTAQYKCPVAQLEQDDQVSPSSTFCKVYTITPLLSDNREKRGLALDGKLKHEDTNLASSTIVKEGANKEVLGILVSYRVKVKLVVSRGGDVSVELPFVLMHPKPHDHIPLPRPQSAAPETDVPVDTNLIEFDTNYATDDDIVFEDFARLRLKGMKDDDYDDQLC
T4 sequence (Q99500 whole entry): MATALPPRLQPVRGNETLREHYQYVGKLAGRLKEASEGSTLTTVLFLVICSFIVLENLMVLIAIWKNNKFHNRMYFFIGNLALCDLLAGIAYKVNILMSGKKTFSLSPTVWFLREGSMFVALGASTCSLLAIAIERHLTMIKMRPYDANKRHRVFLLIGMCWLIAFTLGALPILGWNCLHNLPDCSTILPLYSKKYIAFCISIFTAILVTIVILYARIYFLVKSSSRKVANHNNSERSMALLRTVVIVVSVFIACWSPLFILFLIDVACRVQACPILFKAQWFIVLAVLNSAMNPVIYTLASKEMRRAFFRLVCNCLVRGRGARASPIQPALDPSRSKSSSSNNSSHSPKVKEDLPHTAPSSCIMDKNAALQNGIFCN
Procedure, shortened: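 HEK293 cells transiently expressing S1P3 fused via TEV-cleavable linker to tTA, with β-arrestin2–TEV, treated 16-18 h at 37 °C with compounds (top 10 μM, 10-point 3-fold, 1% DMSO). Luciferase reporter luminescence normalised to DMSO background and 5 μM S1P control as percent activity; EC50 from concentration-response curves.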

[6] = * = rEC50 measured rather than EC50, read-out: Assay 5 rEC50 (relative EC50, cells marked *)

T1 sequence (P32121 whole entry): as the sequence (P32121 whole entry) above
T1 sequence (P21453 whole entry): as the sequence (P21453 whole entry) above

Compound | EC50 [1] [µM] | EC50 [2] [µM] | Lymphocyte Counts (p < 0.05) [3] [%] | EC50 [4] [µM] | EC50 ([5]; read-out: Assay 5 EC50) [µM] | EC50 [5, 6] [µM]
Cc1cc(-c2nnc(-c3cc(F)c(OC[C@H](N)[C@@H](C)O)cc3Cl)s2)cc(NC(C)C)n1 [Entry 62, (2R,3S)-3-amino-4-{[5-chloro-2-fluoro-4-(5-{2-methyl-6-[(1-methylethyl)amino]pyridin-4-yl}-1,3,4-thiadiazol-2-yl)phenyl]oxy}butan-2-ol] | ≤ 0.01 | 0.01 to 0.05 | −79 | ≤ 0.01 | > 10 | 
CC(C)Nc1ccc(-c2nnc(-c3cc(F)c(OC[C@@H](N)CO)cc3Cl)s2)cn1 [Entry 77, (2S)-2-amino-3-{[5-chloro-2-fluoro-4-(5-{6-[(1-methylethyl)amino]pyridin-3-yl}-1,3,4-thiadiazol-2-yl)phenyl]oxy}propan-1-ol] | ≤ 0.01 | 0.25 to 2.8 | −94 | 0.25 to 2.8 | > 10 | 
CC(C)Oc1ccc(-c2nnc(-c3cc(F)c(OC[C@H](N)[C@H](C)O)cc3Cl)s2)cc1Cl [Entry 72, (2S,3S)-3-amino-4-{[5-chloro-4-(5-{3-chloro-4-[(1-methylethyl)oxy]phenyl}-1,3,4-thiadiazol-2-yl)-2-fluorophenyl]oxy}butan-2-ol] | ≤ 0.01 | 0.05 to 0.25 | −86 | 0.01 to 0.05 | > 10 | 
CC(C)Oc1ccc(-c2nnc(-c3cc(F)c(OC[C@H](N)[C@@H](C)O)cc3Cl)s2)cc1Cl [Entry 73, (2R,3S)-3-amino-4-{[5-chloro-4-(5-{3-chloro-4-[(1-methylethyl)oxy]phenyl}-1,3,4-thiadiazol-2-yl)-2-fluorophenyl]oxy}butan-2-ol] | ≤ 0.01 | 0.01 to 0.05 | −89 | ≤ 0.01 | > 10 | 
CC(C)Nc1ccc(-c2nnc(-c3cc(F)c(OCC(N)CO)cc3Cl)s2)cn1 (centres unmarked) [Entry 44, 2-amino-3-{[5-chloro-2-fluoro-4-(5-{6-[(1-methylethyl)amino]pyridin-3-yl}-1,3,4-thiadiazol-2-yl)phenyl]oxy}propan-1-ol] | ≤ 0.01 | 0.25 to 2.8 | −94 | 0.25 to 2.8 | > 10 | 
CC(C)Oc1ccc(-c2nnc(-c3cc(F)c(OC[C@H](N)CO)cc3Cl)s2)cc1Cl [Entry 1, (2R)-2-amino-3-{[5-chloro-4-(5-{3-chloro-4-[(1-methylethyl)oxy]phenyl}-1,3,4-thiadiazol-2-yl)-2-fluorophenyl]oxy}propan-1-ol] | 0.01 to 0.05 | 0.01 to 0.05 | −80 | 0.01 to 0.05 | > 10 | 
CC(C)Oc1ccc(-c2nnc(-c3cc(F)c(OC[C@@H](N)[C@H](C)OP(=O)(O)O)cc3Cl)s2)cc1Cl [Entry 64, (1S,2R)-2-amino-3-{[5-chloro-4-(5-{3-chloro-4-[(1-methylethyl)oxy]phenyl}-1,3,4-thiadiazol-2-yl)-2-fluorophenyl]oxy}-1-methylpropyl dihydrogen phosphate] | ≤ 0.01 | ≤ 0.01 |  | ≤ 0.01 |  | ≤ 0.25
CC(C)Oc1ccc(-c2nnc(-c3cc(F)c(OC[C@H](N)CO)cc3Cl)s2)cc1C#N [Entry 37, 5-[5-(4-{[(2R)-2-amino-3-hydroxypropyl]oxy}-2-chloro-5-fluorophenyl)-1,3,4-thiadiazol-2-yl]-2-[(1-methylethyl)oxy]benzonitrile] | ≤ 0.01 | 0.01 to 0.05 | −93 | ≤ 0.01 | > 10 | 
CC(C)Nc1ccc(-c2nnc(-c3cc(F)c(OC[C@H](N)[C@@H](C)O)cc3Cl)s2)cn1 [Entry 46, (2R,3S)-3-amino-4-{[5-chloro-2-fluoro-4-(5-{6-[(1-methylethyl)amino]pyridin-3-yl}-1,3,4-thiadiazol-2-yl)phenyl]oxy}butan-2-ol] | 0.01 to 0.05 | 0.25 to 2.8 |  | 0.25 to 2.8 | > 10 | 
CC(C)Oc1ccc(-c2nnc(-c3cc(F)c(OC[C@@H](N)[C@@H](C)OP(=O)(O)O)cc3Cl)s2)cc1Cl [Entry 70, (1R,2R)-2-amino-3-{[5-chloro-4-(5-{3-chloro-4-[(1-methylethyl)oxy]phenyl}-1,3,4-thiadiazol-2-yl)-2-fluorophenyl]oxy}-1-methylpropyl dihydrogen phosphate] | ≤ 0.01 | ≤ 0.01 |  | ≤ 0.01 | ≤ 0.25 | 
CC(C)Oc1ccc(-c2nnc(-c3cc(F)c(OC[C@@H](N)COP(=O)(O)O)cc3Cl)s2)cc1Cl [Entry 16, (2R)-2-amino-3-{[5-chloro-4-(5-{3-chloro-4-[(1-methylethyl)oxy]phenyl}-1,3,4-thiadiazol-2-yl)-2-fluorophenyl]oxy}propyl dihydrogen phosphate] | ≤ 0.01 | 0.01 to 0.05 |  | ≤ 0.01 |  | ≤ 0.25
CC(C)Nc1ccc(-c2nnc(-c3cc(F)c(OC[C@H](N)COP(=O)(O)O)cc3Cl)s2)cn1 [Entry 52, (2S)-2-amino-3-{[5-chloro-2-fluoro-4-(5-{6-[(1-methylethyl)amino]pyridin-3-yl}-1,3,4-thiadiazol-2-yl)phenyl]oxy}propyl dihydrogen phosphate] | ≤ 0.01 | ≤ 0.01 |  | ≤ 0.01 |  | > 0.25
CC(C)Oc1ccc(-c2nnc(-c3cc(F)c(OC[C@H](N)CO)cc3Cl)s2)cc1C(F)(F)F [Entry 18, (2R)-2-amino-3-{[5-chloro-2-fluoro-4-(5-{4-[(1-methylethyl)oxy]-3-(trifluoromethyl)phenyl}-1,3,4-thiadiazol-2-yl)phenyl]oxy}propan-1-ol] | 0.01 to 0.05 | 0.01 to 0.05 |  | ≤ 0.01 | > 10 | 
Cc1cc(-c2nnc(-c3cc(F)c(OC[C@@H](N)[C@H](C)O)cc3Cl)s2)cnc1NC(C)C [Entry 96, (2S,3R)-3-amino-4-{[5-chloro-2-fluoro-4-(5-{5-methyl-6-[(1-methylethyl)amino]pyridin-3-yl}-1,3,4-thiadiazol-2-yl)phenyl]oxy}butan-2-ol] | ≤ 0.01 | 2.8 to 10 |  | 0.25 to 2.8 | > 10 | 
(1S,2R)-2-amino-3-{[5-chloro-2-fluoro- 4-(5-{2-methyl-6-[(1- methylethyl)amino]pyridin-4-yl}-1,3,4- thiadiazol-2-yl)phenyl]oxy}-1- methylpropyl dihydrogen phosphate [Entry 101] | ≤ 0.01 | ≤ 0.01 |  | ≤ 0.01 | > 0.25 | 
Cc1cc(-c2nnc(-c3cc(F)c(OC[C@@H](N)[C@@H](C)O)cc3Cl)s2)cc(NC(C)C)n1 [Entry 97, (2R,3R)-3-amino-4-{[5-chloro-2-fluoro-4-(5-{2-methyl-6-[(1-methylethyl)amino]pyridin-4-yl}-1,3,4-thiadiazol-2-yl)phenyl]oxy}butan-2-ol] | ≤ 0.01 | 0.05 to 0.25 |  | ≤ 0.01 | > 0.25 | 
CCOc1ccc(-c2nnc(-c3cc(F)c(OC[C@H](N)CO)cc3Cl)s2)cc1Cl [Entry 25, (2R)-2-amino-3-[(5-chloro-4-{5-[3-chloro-4-(ethyloxy)phenyl]-1,3,4-thiadiazol-2-yl}-2-fluorophenyl)oxy]propan-1-ol] | 0.01 to 0.05 | 0.05 to 0.25 |  | 0.01 to 0.05 | > 10 | 
CC(C)Nc1ncc(-c2nnc(-c3cc(F)c(OC[C@H](N)[C@@H](C)O)cc3Cl)s2)cc1Cl [Entry 48, (2R,3S)-3-amino-4-{[5-chloro-4-(5-{5-chloro-6-[(1-methylethyl)amino]pyridin-3-yl}-1,3,4-thiadiazol-2-yl)-2-fluorophenyl]oxy}butan-2-ol] | ≤ 0.01 | 0.25 to 2.8 |  | 0.01 to 0.05 | > 10 | 
Cc1cc(-c2nnc(-c3cc(F)c(OC[C@H](N)[C@H](C)O)cc3Cl)s2)ccc1OC(C)C [Entry 61, (2S,3S)-3-amino-4-{[5-chloro-2-fluoro-4-(5-{3-methyl-4-[(1-methylethyl)oxy]phenyl}-1,3,4-thiadiazol-2-yl)phenyl]oxy}butan-2-ol] | 0.05 to 0.25 | 0.01 to 0.05 |  | ≤ 0.01 | > 10 | 
